In the NIST ThermoML archive (doi:10.1021/je9006597):

Key:
[1] = xn = mol fraction of the nth substance listed; settings: 101 kPa, Liquid; for speed of sound: Pulse-echo method
[2] = 101 kPa, Liquid; for speed of sound: Pulse-echo method

COC(=O)c1ccccc1 [methyl benzoate] + CCCCCCCC
[1]
Settings | mass density, 303.15 K [kg/m3] | mass density, 308.15 K [kg/m3] | mass density, 313.15 K [kg/m3] | speed of sound, 303.15 K [m/s] | speed of sound, 308.15 K [m/s] | speed of sound, 313.15 K [m/s] | viscosity, 303.15 K [mPa·s] | viscosity, 308.15 K [mPa·s] | viscosity, 313.15 K [mPa·s]
x1 = 0.129 | 732.2 | 728.8 | 725.3 | 1160 | 1140 | 1124 | 0.522 | 0.484 | 0.447
x1 = 0.2456 | 770 | 766.4 | 762.9 | 1180 | 1160 | 1144 | 0.576 | 0.529 | 0.492
x1 = 0.3586 | 809.2 | 805.5 | 801.8 | 1200 | 1180 | 1164 | 0.644 | 0.596 | 0.556
x1 = 0.4655 | 848.4 | 844.5 | 840.7 | 1220 | 1200 | 1184 | 0.727 | 0.668 | 0.621
x1 = 0.5672 | 887.5 | 883.6 | 879.7 | 1240 | 1224 | 1204 | 0.832 | 0.762 | 0.705
x1 = 0.662 | 925.8 | 921.9 | 918 | 1260 | 1248 | 1228 | 0.936 | 0.857 | 0.788
x1 = 0.7528 | 964.3 | 960.3 | 956.5 | 1284 | 1272 | 1252 | 1.084 | 0.99 | 0.913
x1 = 0.8382 | 1002.3 | 998.1 | 994.3 | 1308 | 1300 | 1280 | 1.245 | 1.125 | 1.033
x1 = 0.9213 | 1040.6 | 1036.4 | 1032.4 | 1340 | 1328 | 1308 | 1.434 | 1.303 | 1.193
x1 = 1 | 1078.3 | 1074.4 | 1070.3 | 1380 | 1364 | 1348 | 1.667 | 1.514 | 1.376

CCCCCCCC [octane]
[2]
Settings | mass density [kg/m3] | speed of sound [m/s] | viscosity [mPa·s]
303.15 K | 693.9 | 1148 | 0.491
308.15 K | 690.4 | 1132 | 0.45
313.15 K | 687 | 1112 | 0.415

CCCCCCCC [octane] + COC(=O)c1ccccc1
[1], x2 = 0
Settings | mass density [kg/m3] | speed of sound [m/s] | viscosity [mPa·s]
303.15 K | 693.9 | 1148 | 0.491
308.15 K | 690.4 | 1132 | 0.45
313.15 K | 687 | 1112 | 0.415
